This note sets out measurements from US20050256182A1, “Formulations of anti-pain agents and methods of using the same” (priority 2004, published 2005).

A short description of this data set: Crossover PK study: sumatriptan plasma levels (LC/MS/MS) after ID, junctional or SC administration; Tmax, Cmax, AUC, relative F. The class given is in vivo. The conditions noted are these: Yucatan miniswine, mean; for AUC 0-10 min: Yucatan, minipig, plasma, AUC 10 min.
The mark [1] stands for this setting: 3 × 3 mm × 34 g, 12 mg/ml, 5 minutes metered bolus.
The mark [2] stands for this setting: SC, 12 mg/ml (reference condition).

Experimental: Percent (%) relative Bioavailability (F) for each dosing condition was calculated compared to the SC condition: [formula]

Consider `CNS(=O)(=O)Cc1ccc2[nH]cc(CCN(C)C)c2c1` [sumatriptan, 3-[2-(dimethylamino)ethyl]-N-methyl-indole-5-methanesulfonamide], for which the C max worked out at 849.333 ng/mL (1 × 2 mm × 30 g, 30 mg/ml); 836.667 ng/mL (1 × 3 mm × 30 g, 30 mg/ml); 705.833 ng/mL under setting [1]. Also, the “rel. F 10 min” value under setting [2] came to 100.000%. The “rel. F Total” value under setting [2] worked out at 100.000%. Moreover, the AUC 0-10 min runs as follows: (1 × 1.5 mm × 30 g, 0 mg/ml) 84.7 ng·h/mL; (1 × 2 mm × 30 g, 30 mg/ml) 75.2 ng·h/mL; (1 × 3 mm × 30 g, 30 mg/ml) 86.4 ng·h/mL; (3 × 2 mm × 34 g, 30 mg/ml) 69.5 ng·h/mL; under setting [1], 52.8 ng·h/mL; (3 × 3 mm × 34 g, 30 mg/ml, 2 minute metered bolus) 53.4 ng·h/mL. Also, the AUC 0-10 min was 59.8 ng·h/mL (iv, 12 mg/ml) and 45.3 ng·h/mL (sc, 12 mg/ml).
